The results in this text go back to patent US10329304B2, “Compounds and methods for inhibition of hedgehog signaling and phosphodiesterase” (Vanderbilt University, priority 2014, dated 2019).

One series has as its system hiPSC-CMs. Put plainly: Contractile function of hiPSC-derived cardiomyocytes. Type of series: cell-based, human.
The next series concerns RSV. Put plainly: RSV infection in mice (body weight, lung plaque assay). Particulars: 20 mg/kg IP 3× daily.
The next series deals with panel of 21 phosphatases. Briefly: Phosphatase profiling assay (Millipore). Type of series: biochemical, human. On the procedure:
Profiling assays were not performed in-house. Compounds were shipped to the following companies for possible target identification: Kinase profiling assays were performed by DiscoverRx (San Diego, Calif.) using a phage display model; GPCR profiling assays were performed by Millipore (St. Louis, Mo.) using in cells expressing Gα15, a promiscuous G protein that enhances GPCR coupling to downstream Ca^2+ signaling pathways; phosphatase profiling assay was performed by Millipore (Dundee, UK).

The next series concerns the target T1, PDE1A1 (Homo sapiens, UniProt P54750).
T1 construct: purchased BPS Biosciences (San Diego, Calif.)
Briefly: In vitro PDE assay. Type of series: biochemical. In a few lines: (§1)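 Recombinant human PDE incubated 60 min at room temperature in duplicate with 100 nM FAM-cAMP in 10 mM Tris-HCl pH 7.4, 10 mM MgCl2, 0.05% Tween 20, 1% DMSO. FAM-AMP product captured by bead binding agent for 60 min, then fluorescence read at 485/528 nm.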

For another series, the target named is T2, PDE2A (Homo sapiens, UniProt O00408).
T2 construct: purchased BPS Biosciences (San Diego, Calif.)
Briefly: In vitro PDE assay. Type of series: biochemical. The gist of the method:
as §1

Series [1] concerns RSV (respiratory syncytial virus). Briefly: RSV CPE / plaque assay in HEp-2 cells. Type of series: cell-based. On the procedure:
In Table 11, the results of CPE assays following infection of human epidermoid cancer cells (HEp-2) with RSV. Even at 10,000 higher viral titers, our compound achieved complete inhibition at 10 μM. At 1 and 3 μM, the compound achieved over 98% reduction. The exemplary compound alone caused no apparent cytotoxicity at these concentrations.

A further series concerns Influenza. Put plainly: Influenza antiviral effect. Type of series: cell-based.
For the next series, the system named is cAMP. Put plainly: FRET-based cAMP sensors in NIH3T3 cells. Type of series: cell-based. Particulars: 2 μM. From the text:
To visualize changes in cAMP concentrations in individual cells and cellular regions, we utilized two distinct FRET (fluorescence resonance energy transfer)-based cAMP sensors: the Epac-FRET sensor (mTurquoiseΔ-Epac(CD, ΔDEP)-cp173 Venus-Venus)^35, which detects cytosolic cAMP concentration and the PKA-based cAMP sensor (PKAC-YFP and PKARII-CFP combination), which has been used to document changes in local cAMP levels in the centrosome and basal body.

T1 sequence (P54750 1-529 isoform P54750-6): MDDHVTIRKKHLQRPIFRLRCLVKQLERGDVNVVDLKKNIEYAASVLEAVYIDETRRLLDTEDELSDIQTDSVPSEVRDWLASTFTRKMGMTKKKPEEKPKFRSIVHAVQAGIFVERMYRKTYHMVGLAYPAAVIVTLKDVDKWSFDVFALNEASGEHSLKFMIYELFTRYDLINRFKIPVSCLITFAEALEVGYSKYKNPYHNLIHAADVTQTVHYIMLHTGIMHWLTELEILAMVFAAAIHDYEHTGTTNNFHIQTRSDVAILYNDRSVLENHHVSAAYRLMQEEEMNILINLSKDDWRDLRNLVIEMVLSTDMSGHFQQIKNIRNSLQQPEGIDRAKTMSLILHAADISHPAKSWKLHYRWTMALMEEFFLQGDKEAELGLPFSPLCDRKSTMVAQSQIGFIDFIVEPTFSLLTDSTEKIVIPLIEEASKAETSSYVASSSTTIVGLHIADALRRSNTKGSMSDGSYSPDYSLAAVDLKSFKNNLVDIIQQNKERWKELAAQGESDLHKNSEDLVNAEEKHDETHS
T2 sequence (O00408 whole entry): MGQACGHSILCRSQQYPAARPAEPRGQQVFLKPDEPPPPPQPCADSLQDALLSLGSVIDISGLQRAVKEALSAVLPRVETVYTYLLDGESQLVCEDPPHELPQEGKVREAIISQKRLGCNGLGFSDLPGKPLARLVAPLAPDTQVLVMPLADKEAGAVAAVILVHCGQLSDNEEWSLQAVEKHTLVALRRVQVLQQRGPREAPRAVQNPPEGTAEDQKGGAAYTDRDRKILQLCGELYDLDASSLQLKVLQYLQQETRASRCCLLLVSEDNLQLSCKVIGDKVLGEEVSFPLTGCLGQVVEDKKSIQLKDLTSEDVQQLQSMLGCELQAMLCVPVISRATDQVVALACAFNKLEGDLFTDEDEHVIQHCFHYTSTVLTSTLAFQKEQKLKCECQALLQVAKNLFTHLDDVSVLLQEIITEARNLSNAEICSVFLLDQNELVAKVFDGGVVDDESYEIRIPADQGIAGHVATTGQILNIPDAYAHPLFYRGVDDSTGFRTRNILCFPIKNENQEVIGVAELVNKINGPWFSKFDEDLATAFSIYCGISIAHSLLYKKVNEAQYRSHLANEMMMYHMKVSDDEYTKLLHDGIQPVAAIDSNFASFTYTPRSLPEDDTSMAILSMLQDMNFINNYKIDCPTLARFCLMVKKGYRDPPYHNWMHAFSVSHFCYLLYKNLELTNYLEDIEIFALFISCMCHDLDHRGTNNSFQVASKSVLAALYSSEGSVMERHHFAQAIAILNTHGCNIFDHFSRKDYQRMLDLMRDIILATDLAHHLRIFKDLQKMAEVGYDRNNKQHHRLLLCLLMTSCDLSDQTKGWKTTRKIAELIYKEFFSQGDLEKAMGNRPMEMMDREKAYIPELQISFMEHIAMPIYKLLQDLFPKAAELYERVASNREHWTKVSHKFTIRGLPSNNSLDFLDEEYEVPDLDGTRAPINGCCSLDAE

With `C=C(C)Cn1c(SCC(=O)c2cccs2)nc2sc3c(c2c1=O)CCCC3` [EGM, Eggmanone], the Contractile function result in the series with hiPSC-CMs is on record as “increased contractile function”. Moreover, the Normalized body weight entry in the series with RSV is given as “slightly lower than that with control”. For the same compound, the “Lung viral titer (plaque assay)” value in the series with RSV (day 3) is “significantly reduced viral titer at day 3”.
Consider `C=C(C)Cn1c(SCC(=O)c2cccs2)nc2sc3c(c2c1=O)CCCC3` [Eggmanone, 3-(2-methylallyl)-2-((2-oxo-2-(thiophen-2-yl)ethyl)thio)-5,6,7,8-tetrahydrobenzo[4,5]thieno[2,3-d]pyrimidine-4(3H)-one], for which, in the series on panel of 21 phosphatases, the “agonist or antagonist activity” value is listed as “did not exhibit significant agonist or antagonist activity” and the significant inhibition is > 10 µM. On PDE1A1, the inhibition at 50 µM is < 10%. For the same compound, the IC50 at PDE2A is > 50 µM. In addition, the “Antiviral effect on RSV” value in series [1] is “has antiviral effects”. For the same compound, the “Antiviral effect on Influenza” value with Influenza is “has antiviral effects”. In addition, in the series with cAMP, the “Cytosolic FRET signal (Epac-FRET sensor)” value is recorded as “had no effect on the cytosolic FRET signal” and the “cAMP levels by PKA-based cAMP sensor” value is on record as “increased cAMP levels only at discrete regions”.

A word on the inhibition: it is the change of the read-out against control, counted positive when it falls. Read a low inhibition as a weak effect. Usually IC50 stands for the concentration at which inhibition is half-maximal.
